System: ovariectomized SD female rats
Assay: In vivo anti-osteoporosis assay, digital medical image analysis of femurs (DXA / Micro-CT)
Design: species or system rat
Conditions: femur, OVX SD female rats, oral, 3 months, L 50 mg/kg, E2 estrogen 50 μg/kg, mean ± S.E.M., n=6
Experimental: In this example, an in vivo assay for anti-osteoporosis activity of the Pennisetum extract was carried out on ovariectomized SD female rats in an animal feeding experiment mode, and the analysis of the femur bone mineral density and trabecular bone measurement was performed to confirm the pharmacological activity. The experimental method is as follows: (1) Test substance and control substances: The test group (L) uses the Pennisetum alcohol extract prepared in the foregoing Example 1 as the test substance. The blank control group (Control) and the ovariectomized group (OVX) were administered with ethanol as the control substance. The positive control group (E2) was administered with estrogen as the control substance. (2) Test animals: Test animals (including the test group, ovariectomized group and positive control group) were ovariectomized SD female rats, and the test on animals simulating the menopausal mode was started 2 weeks after oophorectomy. The blank control group was SD female rats without oophorectomy (only subjected to sham surgery). (3) Animal feeding management: The feeding environment was temperature 20° C. to 25° C.; humidity 65% to 80%; and lighting time 12 hours (monitoring environment every day). During the acclimation and test period, every 4 female rats were housed in an autoclaved plastic rearing cage (46 cm×25 cm×20 cm). Drinking water was treated with a reverse osmosis pure water machine, and then charged in a high temperature autoclaved plastic bottle to give the test animals for free drinking. (4) Acclimation: Ovariectomized SD female rats delivered by BioLASCO Co., Ltd. were acclimated for one week after entering the laboratory. During this period, clinical symptoms were observed every day, and healthy rats with normal weight gain were confirmed for the test. (5) Administration of test substance and control substances: After one week of acclimation, the experimental rats were orally administered with different doses of Pennisetum alcohol extract, ethanol or estrogen for 3 consecutive months, and then all the experimental rats were fasted one night before sacrifice to simulate the clinically applicable route of administration for the human body. During the 3 consecutive months of testing, according to the weight of the day before the administration, the test group was administered with a solution of the Pennisetum alcohol extract (10 mL/kg), which was prepared by dissolving 50 mg of Pennisetum alcohol extract in 10.0 mL of 10% ethanol; the blank control group and the ovariectomized group were administered with 10% ethanol (10.0 mL/kg); and the positive control group was administered with estrogen, which was dissolved in 10% ethanol (10.0 mL/kg). (6) The animal grouping was performed according to the body weight in an S-type order after the animals gained weight. The bone density (mass/volume) of the appropriate bone was measured by a dual energy X-ray absorptiometer (DXA) or micro-computerized tomography (Micro-CT, μ-CT; also used to measure the trabecular number). During the measurement, the DXA with two different energies was used to scan the inspection site, then the X-rays passing through the tested site was received by a scintillation detector, and then a computer analyzed the data to calculate the bone quality of the tested site. The records of the percentage of bone mass (bone volume/tissue volume), trabecular separation/spacing (Tb.Sp), trabecular number (Tb.N) and bone mineral density (BMD) in each group are shown in Table 5. It is represented by mean±standard error (S.E.M.) (n=6), and a, b, c, and d in the table represent statistical differences between the groups. The experimental data were statistically analyzed by one-way ANOVA. The statistical method of correlation index changes between the groups was statistically analyzed by Duncan test. […]

[1] = listed as positive control group

estrogen [E2]
Bone Mineral Density: 0.619 mg/cm^2 | Percentage of Bone Mass (bone volume/tissue volume): 10.512% | Trabecular Number (Tb.N): 0.908 ± 1/mm | Trabecular Separation/Spacing (Tb.Sp): 1.103 mm | Percentage of Bone Mass (bone volume/tissue volume) [1]: 10.512±1.071% | Trabecular Number (Tb.N) [1]: 0.908±0.085 1/mm
